Measured values published in PubChem BioAssay (NCI).
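The compound was tested at five concentrations on cells cultured in 96-well plates, with a 48-hour exposure period. Abbreviation: GI50, concentration required for 50% inhibition of growth. TGI marks complete inhibition of growth.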

Columns and labels:
Assay in all cases: NCI tumour cell line growth inhibition, 48 h
[1] = tested on: 786-0 renal
[2] = tested on: A498 renal
[3] = tested on: A549 NSCLC
[4] = tested on: ACHN renal
[5] = tested on: BT-549 breast
[6] = tested on: CAKI-1 renal
[7] = tested on: CCRF-CEM leukemia
[8] = tested on: COLO 205 colon
[9] = tested on: DU-145 prostate
[10] = tested on: EKVX NSCLC
[11] = tested on: HCC-2998 colon
[12] = tested on: HCT-116 colon
[13] = tested on: HCT-15 colon
[14] = tested on: HL-60(TB) leukemia
[15] = tested on: HOP-62 NSCLC
[16] = tested on: HOP-92 NSCLC
[17] = tested on: HS 578T breast
[18] = tested on: HT29 colon
[19] = tested on: IGROV1 ovarian
[20] = tested on: K-562 leukemia
[21] = tested on: KM12 colon
[22] = tested on: LOX IMVI melanoma
[23] = tested on: M14 melanoma
[24] = tested on: MALME-3M melanoma
[25] = tested on: MCF7 breast
[26] = tested on: MDA-MB-231 breast
[27] = tested on: MDA-MB-435
[28] = tested on: MDA-MB-468 breast
[29] = tested on: MOLT-4 leukemia
[30] = tested on: NCI-H226 lung
[31] = tested on: NCI-H23 lung
[32] = tested on: NCI-H460 lung
[33] = tested on: NCI-H522 lung
[34] = tested on: NCI/ADR-RES ovarian
[35] = tested on: OVCAR-3 ovarian
[36] = tested on: OVCAR-4 ovarian
[37] = tested on: OVCAR-5 ovarian
[38] = tested on: OVCAR-8 ovarian
[39] = tested on: PC-3 prostate
[40] = tested on: RPMI-8226 leukemia
[41] = tested on: RXF 393 renal
[42] = tested on: SF-268 CNS
[43] = tested on: SF-295 CNS
[44] = tested on: SF-539 CNS
[45] = tested on: SK-MEL-2 melanoma
[46] = tested on: SK-MEL-28 melanoma
[47] = tested on: SK-MEL-5 melanoma
[48] = tested on: SK-OV-3 ovarian
[49] = tested on: SN12C renal
[50] = tested on: SNB-19 CNS
[51] = tested on: SNB-75 CNS
[52] = tested on: SW-620 colon
[53] = tested on: T-47D breast
[54] = tested on: TK-10 renal
[55] = tested on: U251 CNS
[56] = tested on: UACC-257 melanoma
[57] = tested on: UACC-62 melanoma
[58] = tested on: UO-31 renal

For `FC(F)(F)CN1CCN(CCn2c(C(F)(F)F)cc3c(Cl)ncnc32)CC1`, the GI50 [1] was 22.3 µM, the TGI [1] was 60.7 µM and the GI50 [2] was 21.3 µM. The TGI [2] was 57.4 µM, the GI50 [3] was 52.9 µM and the TGI [3] was greater than 100 µM. It also gave a GI50 [4] of 12.3 µM, a TGI [4] greater than 100 µM and a GI50 [5] of 13 µM. It also gave a TGI [5] of 26.8 µM, a GI50 [6] of 13.6 µM and a TGI [6] of 30.6 µM. For the same compound, the GI50 [7] was 4.37 µM, the TGI [7] was greater than 100 µM and the GI50 [8] was 18.4 µM. It also gave a TGI [8] of 46.2 µM, a GI50 [9] of 12.5 µM and a TGI [9] of 32.8 µM. It also gave a GI50 [10] of 11.6 µM, a TGI [10] of 40.4 µM and a GI50 [11] of 1.83 µM. It also gave a TGI [11] of 3.28 µM, a GI50 [12] of 3.16 µM and a TGI [12] of 13.3 µM. It also gave a GI50 [13] of 2.55 µM, a TGI [13] of 7.37 µM and a GI50 [14] of 2.75 µM. For the same compound, the TGI [14] was 8.18 µM, the GI50 [15] was 13.8 µM and the TGI [15] was 32.5 µM. It also gave a GI50 [16] of 12.9 µM, a TGI [16] of 29.2 µM and a GI50 [17] of 14.2 µM. For the same compound, the TGI [17] was 59.8 µM, the GI50 [18] was 5.46 µM and the TGI [18] was 36.6 µM. The GI50 [19] was 1.78 µM, the TGI [19] was 3.54 µM and the GI50 [20] was 2.8 µM. It also gave a TGI [20] greater than 100 µM, a GI50 [21] of 17.9 µM and a TGI [21] of 39.9 µM. It also gave a GI50 [22] of 1.68 µM, a TGI [22] of 3.1 µM and a GI50 [23] of 6.19 µM. For the same compound, the TGI [23] was 23.1 µM, the GI50 [24] was 14.5 µM and the TGI [24] was 32 µM. It also gave a GI50 [25] of 10 µM, a TGI [25] of 42.6 µM and a GI50 [26] of 1.76 µM. For the same compound, the TGI [26] was 4.28 µM, the GI50 [27] was 5.5 µM and the TGI [27] was 19.5 µM. It also gave a GI50 [28] of 2.19 µM, a TGI [28] of 4.94 µM and a GI50 [29] of 2.4 µM. For the same compound, the TGI [29] was 9.2 µM, the GI50 [30] was 17.4 µM and the TGI [30] was 72.8 µM. The GI50 [31] was 5.84 µM, the TGI [31] was 26.6 µM and the GI50 [32] was 2.66 µM. It also gave a TGI [32] of 6.73 µM, a GI50 [33] of 1.7 µM and a TGI [33] of 3.52 µM. For the same compound, the GI50 [34] was 19 µM, the TGI [34] was 46.6 µM and the GI50 [35] was 14.3 µM. It also gave a TGI [35] of 34.4 µM, a GI50 [36] of 26.8 µM and a TGI [36] greater than 100 µM. It also gave a GI50 [37] greater than 100 µM, a TGI [37] greater than 100 µM and a GI50 [38] of 3.2 µM. The TGI [38] was 11.7 µM, the GI50 [39] was 3.53 µM and the TGI [39] was 12 µM. For the same compound, the GI50 [40] was 23.7 µM, the TGI [40] was 77.4 µM and the GI50 [41] was 11 µM. It also gave a TGI [41] of 28.1 µM, a GI50 [42] of 5.2 µM and a TGI [42] of 21.4 µM. The GI50 [43] was 10.3 µM, the TGI [43] was 25.9 µM and the GI50 [44] was 12.6 µM. For the same compound, the TGI [44] was 28.7 µM, the GI50 [45] was 15.7 µM and the TGI [45] was 30.9 µM. It also gave a GI50 [46] of 8.13 µM, a TGI [46] of 37.4 µM and a GI50 [47] of 3.73 µM. The TGI [47] was 13.7 µM, the GI50 [48] was 16.2 µM and the TGI [48] was 43.2 µM. The GI50 [49] was 7.75 µM, the TGI [49] was 23.1 µM and the GI50 [50] was 13.2 µM. For the same compound, the TGI [50] was 26.8 µM, the GI50 [51] was 3.11 µM and the TGI [51] was 14.2 µM. The GI50 [52] was 4.86 µM, the TGI [52] was 19.5 µM and the GI50 [53] was 17.3 µM. It also gave a TGI [53] of 63.7 µM, a GI50 [54] of 35.5 µM and a TGI [54] greater than 100 µM. It also gave a GI50 [55] of 2.4 µM, a TGI [55] of 6.43 µM and a GI50 [56] of 4.09 µM. For the same compound, the TGI [56] was 16.9 µM, the GI50 [57] was 4.69 µM and the TGI [57] was 18.1 µM. For the same compound, the GI50 [58] was 1.63 µM and the TGI [58] was 3.27 µM.
